# Assay results taken from US20130309736A1, “COMPOSITIONS AND METHODS FOR MALATE AND FUMARATE PRODUCTION” (CARGILL, INCORPORATED, priority 2011, published 2013).
# Key:
# yeast cells = test: EMS mutagenesis, kill rate; assay type: cell-based; settings: 3 μL EMS in 200 μL cell suspension (OD600 around 10), approximately one hour
# Description: For example, yeast cells from a fresh YP (yeast extract/peptone)+20 g/L glucose plate or liquid culture (OD600 1-4) are resuspended in sterile water to an OD600 of around 10. 200 μL aliquots of this cell suspension are pipetted into individual tubes and exposed to 3 μL […] (EMS) for approximately one hour, which kills around 65% of the cells. Higher EMS concentrations can also be used to increase the kill rate. After exposure, cells are neutralized with 5% sodium thiosulfate, washed in PBS buffer, recovered in rich media for approximately four hours, and cultured on selective media. Mock samples (no EMS) are also run to ensure that the conditions are selective. Alternatively, cell can be mutagenized using UV irradiation.
# [1] = system: Issatchenkia orientalis ATCC 60585; test: Glucose consumption rate in YPD shake flasks (second secondary screen); assay type: cell-based
# Description: (§1) For the second secondary screen, glucose consumption was measured in YPD media containing 0 g/L malate at pH 3.0 or 200 g/L malate at pH 2.85. Shake flasks were inoculated with biomass harvested from seed flasks grown overnight to an OD600 of 6 to 10. 250 mL baffled glycolytic assay flasks (50 mL working volume) were inoculated to an OD600 of 0.1 and grown at 250 RPM and 30° C. Samples were taken throughout the time course of the assay and analyzed for glucose consumption using a 2700 Biochemistry Analyzer (Yellow Springs Instruments, YSI). The resulting data was plotted and glucose consumption rates were established.
# [2] = system: Candida guilliermondii ATCC 20118; test: as above; assay type: cell-based
# Description: as §1
# [3] = system: Candida sorbosivorans CD1978; test: as above; assay type: cell-based
# Description: as §1
# [4] = system: Candida vanderwaltii MUCL 30000; test: as above; assay type: cell-based
# Description: as §1
# [5] = system: Issatchenkia orientalis ATCC 60585; test: Growth rate in YPD shake flasks (first secondary screen); assay type: cell-based
# Description: (§2) For the first secondary screen, growth rates were measured in YPD media containing 0 g/L malate at pH 3.0 or 200 g/L malate at pH 2.85. Shake flasks were inoculated with biomass harvested from seed flasks grown overnight to an OD600 of 6 to 10. 250 mL baffled growth rate flasks (50 mL working volume) were inoculated to an OD600 of 0.1 and grown at 250 rpm and 30° C. Samples were taken throughout the time course of the assay and analyzed for biomass growth via OD600. The resulting OD600 data was plotted and growth rates were established.
# [6] = system: Candida guilliermondii ATCC 20118; test: as above; assay type: cell-based
# Description: as §2
# [7] = system: Candida sorbosivorans CD1978; test: as above; assay type: cell-based
# Description: as §2
# [8] = system: Candida vanderwaltii MUCL 30000; test: as above; assay type: cell-based
# Description: as §2
# [9] = system: seven wild-type yeast strains; test: Range finding: overnight growth in microtiter wells with malate; assay type: cell-based; settings: YPD, 30° C.
# Description: The range of malate concentrations to utilize in primary screening procedures was determined by evaluating the ability of seven wild-type yeast strains (Candida sonorensis, Candida zemplinina, I. orientalis strain PTA-6658, I. orientalis strain CD1822, Kluyveromyces lactis, K. marxianus, S. cerevisiae strain CENPK 113-7D) to grow on media containing varying levels of malate. Cells were streaked onto YPD plates and grown overnight. A cell slurry with an OD600 of around 4 was made in YPD media, pH 3.0, and this slurry was used to inoculate microtiter wells containing various concentrations of malate to an OD600 of 0.05. Plates were covered with a gas permeable membrane and incubated in a 30° C./300 rpm shaker overnight. The optical densities of each well were measured at a wavelength of 600 nm in a GENios model plate reader (Tecan), and plates were observed visually for growth. The highest malate concentration that one or more of the strains grew in (350 g/L) was chosen as the upper range for primary screening procedure.
# wild-type yeast strains = test: Additional primary screen: growth on microtiter plates with malate; assay type: cell-based; settings: ten strains of 24 re-tested; 200 g/L malate, pH 2.85, microtiter plates, overnight
# Description: For the primary screening procedure, 91 wild-type yeast strains were screened for growth on microtiter plates at pH 2.85 with 0 g/L, 150 g/L, 300 g/L, or 350 g/L pH 2.85 malate using the same protocol used for range finding. A fresh YPD plate was used for each strain, and a slurry with an OD600 of around 4 was made in YPD media, pH 3.0. The slurry was used to inoculate each well to an OD600 of 0.05. Plates were covered with a gas permeable membrane, and incubated in a 30° C./300 rpm shaker overnight. Optical densities of each well were measured at 600 nm in a GENios model plate reader, and plates were observed visually for growth. To account for plate-to-plate variability, I. orientalis PTA-6658 was included on all plates as a control. […] As such, an additional screen was added wherein the 24 strains that grew as well or better than the I. orientalis control strain were re-tested. […] These ten strains were advanced to the secondary screens. […] However, it is possible that one or more such strains could nonetheless meet the minimum requirements for a commercially viable fermentation process.
# [10] = system: Candida sorbosivorans ATCC 38619; test: Growth rate in YPD shake flasks (first secondary screen); assay type: cell-based
# Description: as §2
# (§3) The same procedures were utilized to screen, rate, and score the original 91 wild-type yeast strains from the primary screen with media containing 0, 30, 45, and 60 g/L lactic acid at pH 3.0 (˜80% free acid). Due to difficulties in properly scoring some very weak growth that occasionally occurred at 60 g/L, 20 strains were re-tested in the primary screen. Of these 20 strains, eight were eliminated due to very slow growth relative to the rest of the test group. The remaining 12 strains were advanced into secondary screening. The secondary screen for lactic acid was the same as that described above for malate, except for changes in concentrations and pH values. Growth rates were measured at 0 g/L lactic acid, pH 3.0 and 50 g/L lactic acid, pH 2.85, and glucose consumption rates were measured in the presence of 50 g/L lactic acid, pH 2.85. Normalized values and weighted and summed scores were calculated for each strain as described above for malate.
# [11] = system: Issatchenkia orientalis ATCC 24210; test: as above; assay type: cell-based
# Description: as §2, §3
# [12] = system: Candida lambica ATCC 38617; test: as above; assay type: cell-based
# Description: as §2, §3
# [13] = system: Issatchenkia orientalis ATCC PTA-6658; test: as above; assay type: cell-based
# Description: as §2, §3
# [14] = system: Issatchenkia orientalis CD1822; test: as above; assay type: cell-based
# Description: as §2, §3
# [15] = system: Saccharomyces bulderi ATCC MYA-404; test: as above; assay type: cell-based
# Description: as §2, §3
# [16] = system: Candida sorbosivorans ATCC 38619; test: Glucose consumption rate in YPD shake flasks (second secondary screen); assay type: cell-based
# Description: as §1, §3
# [17] = system: Issatchenkia orientalis ATCC 24210; test: as above; assay type: cell-based
# Description: as §1, §3
# [18] = system: Candida lambica ATCC 38617; test: as above; assay type: cell-based
# Description: as §1, §3
# [19] = system: Issatchenkia orientalis ATCC PTA-6658; test: as above; assay type: cell-based
# Description: as §1, §3
# [20] = system: Issatchenkia orientalis CD1822; test: as above; assay type: cell-based
# Description: as §1, §3
# [21] = system: Saccharomyces bulderi ATCC MYA-404; test: as above; assay type: cell-based
# Description: as §1, §3
# [22] = 15.5° C.; cited from earlier work
# [23] = malate, slope of growth rates against acid concentration, scale 0 to 1
# [24] = Candida sorbosivorans ATCC 24120, scale 0 to 1
# [25] = Candida sorbosivorans ATCC 38619, YPD, 30° C.
smiles,measurement,setting,value
CCOS(C)(=O)=O [ethane methyl sulfonate],cells killed,yeast cells,around 65%
"O=C(O)CC(O)C(=O)O (stereo not drawn) [malate, hydroxybutanedioc acid]",Glucose consumption rate 200 g/L malate (pH 2.85),"[1]; YPD, 30° C.",2.7 g L^−1 h^−1
same,Normalized grade: Glucose consumption rate 200 g/L malate (pH 2.85),[1]; scale 0 to 1,0.70
same,Glucose consumption rate 200 g/L malate (pH 2.85),"[2]; Candida guilliermondii ATCC 20118, YPD, 30° C.",1.9 g L^−1 h^−1
same,Normalized grade: Glucose consumption rate 200 g/L malate (pH 2.85),"[2]; Candida guilliermondii, scale 0 to 1",0.30
same,Glucose consumption rate 200 g/L malate (pH 2.85),"[3]; YPD, 30° C.",1.85 g L^−1 h^−1
same,Normalized grade: Glucose consumption rate 200 g/L malate (pH 2.85),[3]; scale 0 to 1,0.28
same,Glucose consumption rate 200 g/L malate (pH 2.85),"[4]; YPD, 30° C.",1.3 g L^−1 h^−1
same,Normalized grade: Glucose consumption rate 200 g/L malate (pH 2.85),[4]; scale 0 to 1,0.00
same,Growth rate 200 g/L malate (pH 2.85),"[5]; YPD, 30° C.",0.36 h^−1
same,Normalized grade: Growth rate slope,[5]; [23],0.54
same,Normalized grade: Growth rate 200 g/L malate (pH 2.85),[5]; scale 0 to 1,0.27
same,Growth rate 200 g/L malate (pH 2.85),"[6]; YPD, 30° C.",0.42 h^−1
same,Normalized grade: Growth rate slope,[6]; [23],1.00
same,Normalized grade: Growth rate 200 g/L malate (pH 2.85),[6]; scale 0 to 1,0.82
same,Growth rate 200 g/L malate (pH 2.85),"[7]; YPD, 30° C.",0.34 h^−1
same,Normalized grade: Growth rate slope,[7]; [23],0.00
same,Normalized grade: Growth rate 200 g/L malate (pH 2.85),[7]; scale 0 to 1,0.09
same,Growth rate 200 g/L malate (pH 2.85),"[8]; YPD, 30° C.",0.39 h^−1
same,Normalized grade: Growth rate slope,[8]; [23],0.92
same,Normalized grade: Growth rate 200 g/L malate (pH 2.85),[8]; scale 0 to 1,0.55
same,highest malate concentration that one or more of the strains grew in,[9],350 g/L
same,optical density relative to the same strain in 0 g/L malic acid,wild-type yeast strains,greater than or equal to 50%
same,Normalized grade: Growth rate slope,"[10]; Candida sorbosivorans ATCC 24120, malate, slope of growth rates against acid concentration, scale 0 to 1",0.92
same,Normalized grade: Growth rate 200 g/L malate (pH 2.85),[10]; [24],0.36
same,Growth rate 200 g/L malate (pH 2.85),[10]; [25],0.37 h^−1
same,Growth rate 200 g/L malate (pH 2.85),"[11]; YPD, 30° C.",0.39 h^−1
same,Normalized grade: Growth rate slope,[11]; [23],0.56
same,Normalized grade: Growth rate 200 g/L malate (pH 2.85),[11]; scale 0 to 1,0.55
same,Growth rate 200 g/L malate (pH 2.85),"[12]; YPD, 30° C.",0.33 h^−1
same,Normalized grade: Growth rate slope,[12]; [23],0.41
same,Normalized grade: Growth rate 200 g/L malate (pH 2.85),[12]; scale 0 to 1,0.00
same,Growth rate 200 g/L malate (pH 2.85),"[13]; YPD, 30° C.",0.44 h^−1
same,Normalized grade: Growth rate slope,[13]; [23],0.67
same,Normalized grade: Growth rate 200 g/L malate (pH 2.85),[13]; scale 0 to 1,1.00
same,Growth rate 200 g/L malate (pH 2.85),"[14]; YPD, 30° C.",0.42 h^−1
same,Normalized grade: Growth rate slope,[14]; [23],0.67
same,Normalized grade: Growth rate 200 g/L malate (pH 2.85),[14]; scale 0 to 1,0.82
same,Growth rate 200 g/L malate (pH 2.85),"[15]; YPD, 30° C.",0.39 h^−1
same,Normalized grade: Growth rate slope,[15]; [23],1.00
same,Normalized grade: Growth rate 200 g/L malate (pH 2.85),[15]; scale 0 to 1,0.55
same,Normalized grade: Glucose consumption rate 200 g/L malate (pH 2.85),[16]; [24],0.05
same,Glucose consumption rate 200 g/L malate (pH 2.85),[16]; [25],1.4 g L^−1 h^−1
same,Glucose consumption rate 200 g/L malate (pH 2.85),"[17]; YPD, 30° C.",3.1 g L^−1 h^−1
same,Normalized grade: Glucose consumption rate 200 g/L malate (pH 2.85),[17]; scale 0 to 1,0.90
same,Glucose consumption rate 200 g/L malate (pH 2.85),"[18]; YPD, 30° C.",3.2 g L^−1 h^−1
same,Normalized grade: Glucose consumption rate 200 g/L malate (pH 2.85),[18]; scale 0 to 1,0.95
same,Glucose consumption rate 200 g/L malate (pH 2.85),"[19]; YPD, 30° C.",3.3 g L^−1 h^−1
same,Normalized grade: Glucose consumption rate 200 g/L malate (pH 2.85),[19]; scale 0 to 1,1.00
same,Glucose consumption rate 200 g/L malate (pH 2.85),"[20]; YPD, 30° C.",3.3 g L^−1 h^−1
same,Normalized grade: Glucose consumption rate 200 g/L malate (pH 2.85),[20]; scale 0 to 1,1.00
same,Glucose consumption rate 200 g/L malate (pH 2.85),"[21]; YPD, 30° C.",3.15 g L^−1 h^−1
same,Normalized grade: Glucose consumption rate 200 g/L malate (pH 2.85),[21]; scale 0 to 1,0.93
"O=C(O)/C=C/C(=O)O [Fumarate, trans-butanedioic acid]",water solubility,[22],4.28 g/kg H2O
